This is an account of results in PubChem BioAssay (NCI).

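Briefly, cells in 96-well plates were exposed to five compound concentrations for 48 h, and endpoints were estimated by linear interpolation. TGI denotes the concentration required for complete inhibition of growth.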

Test systems include MALME-3M melanoma; CAKI-1 renal; A498 renal; OVCAR-4 ovarian; HOP-62 NSCLC; T-47D breast; SF-268 CNS; SF-295 CNS; SK-MEL-28 melanoma; SNB-75 CNS; MOLT-4 leukemia; K-562 leukemia; SF-539 CNS.
Holding throughout (assay): NCI tumour cell line growth inhibition, 48 h

Turning to `Cc1ccc2c(c1)C(=S)N1CSCC1c1nncn1-2` (stereo unspecified), the TGI in the assay with MALME-3M melanoma, in the assay with CAKI-1 renal, with A498 renal, in the assay on OVCAR-4 ovarian, in the assay on HOP-62 NSCLC and in the assay on T-47D breast was greater than 100 µM throughout. For the same compound, the TGI in the assay on SF-268 CNS, with SF-295 CNS, with SK-MEL-28 melanoma, in the assay with SNB-75 CNS, with MOLT-4 leukemia and in the assay on K-562 leukemia was greater than 100 µM in each case.

In the case of `COc1cc(C2C3C=CC=C4CC=CC(=C43)C3CCC(=O)N32)cc(OC)c1OC` (stereo unspecified), the TGI in the assay on A498 renal, in the assay on HOP-62 NSCLC, in the assay with T-47D breast, in the assay on SF-268 CNS, in the assay on SF-295 CNS and in the assay with SK-MEL-28 melanoma was greater than 100 µM each time. Moreover, the TGI in the assay with SNB-75 CNS, in the assay on SF-539 CNS, in the assay on MOLT-4 leukemia and with K-562 leukemia was greater than 100 µM in each case.

With `Cn1c(=O)c2c(ncn2CCNC(CO)C(O)c2ccc([N+](=O)[O-])cc2)n(C)c1=O` (stereo unspecified), the TGI with MALME-3M melanoma, in the assay with CAKI-1 renal, with A498 renal, with OVCAR-4 ovarian, with HOP-62 NSCLC and in the assay with T-47D breast was greater than 100 µM throughout. Further, the TGI in the assay on SF-268 CNS, with SF-295 CNS, with SK-MEL-28 melanoma, in the assay with SF-539 CNS, in the assay on MOLT-4 leukemia and in the assay on K-562 leukemia was greater than 100 µM throughout.

Regarding `O=C(O)CCCc1nc2c(n1Cc1ccccc1)C(=O)c1ccccc1C2=O`, the TGI is 47 µM in the assay on MALME-3M melanoma; greater than 100 µM in the assay with CAKI-1 renal; greater than 100 µM in the assay with A498 renal; 77.8 µM in the assay on OVCAR-4 ovarian; greater than 100 µM in the assay on T-47D breast; greater than 100 µM in the assay on SF-268 CNS. Also, the TGI in the assay on SF-295 CNS is 86.1 µM; with SK-MEL-28 melanoma it was greater than 100 µM; in the assay with SF-539 CNS it was greater than 100 µM; with MOLT-4 leukemia, greater than 100 µM; with K-562 leukemia, greater than 100 µM.

Regarding `C[C@H]1[C@H]2[C@H]3CC[C@@H]4[C@@]5(C)CC[C@H](O)C(C)(C)[C@@H]5CC[C@@]4(C)[C@]3(C)C[C@H](O)[C@@]2(C)C[C@H]2O[C@]21C`, the TGI in the assay with MALME-3M melanoma was 39.6 µM; in the assay on CAKI-1 renal, 69.8 µM; in the assay with A498 renal, 38.7 µM; in the assay on OVCAR-4 ovarian it was greater than 100 µM; in the assay on HOP-62 NSCLC, 57.7 µM; with T-47D breast, 46.8 µM. Besides, the TGI in the assay with SF-268 CNS was 36.7 µM; in the assay with SF-295 CNS, 37.4 µM; in the assay with SK-MEL-28 melanoma, 36.9 µM; with SF-539 CNS, 39 µM; with MOLT-4 leukemia, greater than 100 µM.

In the case of `CCN(CC)CCNc1ccc2nnn3c4ccc(OCCN(CC)CC)cc4c(=O)c1c23`, the TGI is greater than 100 µM with CAKI-1 renal; greater than 100 µM with A498 renal; 41.3 µM with OVCAR-4 ovarian; 72.9 µM with HOP-62 NSCLC; greater than 100 µM in the assay on T-47D breast; greater than 100 µM in the assay with SF-268 CNS. For the same compound, the TGI is greater than 100 µM in the assay with SF-295 CNS; greater than 100 µM in the assay with SK-MEL-28 melanoma; greater than 100 µM in the assay with SF-539 CNS; 39 µM in the assay on MOLT-4 leukemia; greater than 100 µM with K-562 leukemia.

In the case of `O=c1[nH]cnc2c1cnn2Cc1cn(CCCCO)nn1`, the TGI with MALME-3M melanoma, in the assay with CAKI-1 renal, with A498 renal, in the assay on OVCAR-4 ovarian, with HOP-62 NSCLC and with T-47D breast was greater than 100 µM throughout. The TGI in the assay with SF-268 CNS, with SF-295 CNS, in the assay on SK-MEL-28 melanoma, with SF-539 CNS, with MOLT-4 leukemia and in the assay on K-562 leukemia was greater than 100 µM throughout.

As to `O=P(O)(O)CCP(=O)(O)O`, the TGI with MALME-3M melanoma, with CAKI-1 renal, in the assay with A498 renal, with OVCAR-4 ovarian, with HOP-62 NSCLC and with T-47D breast was greater than 100 µM each time. Further, the TGI with SF-268 CNS, with SF-295 CNS, in the assay with SK-MEL-28 melanoma, with SF-539 CNS, in the assay on MOLT-4 leukemia and in the assay on K-562 leukemia was greater than 100 µM in each case.

Take `O=C1Nc2cccc(Cl)c2/C1=C\c1c(Cl)nc2n1CCS2`: the TGI in the assay with MALME-3M melanoma, in the assay with CAKI-1 renal, with A498 renal, in the assay with HOP-62 NSCLC, in the assay with T-47D breast and in the assay on SF-268 CNS was greater than 100 µM in each case. The TGI in the assay with SF-295 CNS, in the assay on SK-MEL-28 melanoma, in the assay on SNB-75 CNS, in the assay with SF-539 CNS, in the assay on MOLT-4 leukemia and in the assay on K-562 leukemia was greater than 100 µM in each case.

As for `CCN(CC)Cc1ccc(C(=S)Nc2ccc(Cl)cc2)s1`, the TGI was found to be 26.2 µM with CAKI-1 renal; 25.8 µM with A498 renal; 34.6 µM in the assay on OVCAR-4 ovarian; 32.1 µM with HOP-62 NSCLC; 34.2 µM with T-47D breast; 30 µM in the assay on SF-268 CNS. In addition, the TGI stood at 25.2 µM in the assay with SF-295 CNS; 20.8 µM in the assay with SK-MEL-28 melanoma; 31.6 µM with SF-539 CNS; 34.4 µM in the assay with MOLT-4 leukemia; 18.9 µM with K-562 leukemia.

On to `CO/N=C(\C)c1ccc(Nc2nc3ccccc3c3occc23)cc1`, for which the TGI came to 28.3 µM with MALME-3M melanoma; 32 µM in the assay with CAKI-1 renal; 29.7 µM in the assay on A498 renal; 29.5 µM with HOP-62 NSCLC; 28.9 µM in the assay on T-47D breast; 32.5 µM with SF-268 CNS. For the same compound, the TGI in the assay with SF-295 CNS amounted to 31.5 µM; with SF-539 CNS, 27.5 µM; in the assay with MOLT-4 leukemia it was 53.1 µM; with K-562 leukemia, 50.7 µM.

Consider `C=CCCON(C(=O)OC(C)(C)C)C(C)(C)C`, for which the TGI with MALME-3M melanoma, in the assay on CAKI-1 renal, in the assay on A498 renal, in the assay with HOP-62 NSCLC, in the assay on T-47D breast and in the assay with SF-268 CNS was greater than 100 µM each time. For the same compound, the TGI in the assay with SF-295 CNS, in the assay on SK-MEL-28 melanoma, with SNB-75 CNS, with SF-539 CNS, in the assay on MOLT-4 leukemia and in the assay on K-562 leukemia was greater than 100 µM each time.
